Data reported in patent publication US7790761B2, “Blockade of voltage dependent sodium channels” (University College London, priority 2000, dated 2010).

Tested on: sodium channels
Assay: [14C]-labelled guanidine flux through sodium channels
Assay type: biochemical, rat
Details: inhibition of flux of [14C]-labelled guanidine through sodium channels

| Molecule | IC50 [µM] |
| --- | --- |
| 5-[3-tert-Butyl-1-(2,4-dichlorobenzyl)pyrazol-5-yl]-4-methyltriazole-3-thiol | < 9 |
| CC(C)(C)c1cc(C(=O)Nc2ccc(Cl)cc2)n(Cc2ccccc2)n1 [2-Benzyl-5-tert-butyl-2H-pyrazole-3-carboxylic acid (4-chloro-phenyl)-amide] | 4.4 |
| CC(C)(C)c1cc(C(=O)NNC(=O)Nc2cccc(C(F)(F)F)c2)n(Cc2ccccc2)n1 [2-Benzyl-5-tert-butyl-2H-pyrazole-3-carboxylic arid N′-(3-trifluoromethylphenylcarbamoyl)hydrazide] | 0.5 |
| C#CCSc1nnc(-c2cc(C(C)(C)C)nn2Cc2ccc(Cl)cc2Cl)n1-c1ccccc1 [3-[3-(tert-Butyl)-1-(2,4-dichlorobenzyl)-1H-pyrazol-5-yl]-4-phenyl-5-(prop-2-ynylthio)-4H-1,2,4-tziazole] | 18 |
| Cc1ccc(Cn2nc(C(=O)Nc3ccccc3)cc2C)cc1 [5-Methyl-1-(4-methyl-benzyl)-1H-pyrazole-3-carboxylic acid phenylamide] | 23 |
| CCOC(=O)CSc1nnc(-c2cc(C(C)(C)C)nn2Cc2cccc(C)c2)n1C1CCCCC1 [Ethyl 2-([5-[3-(tert-butyl)-1-(3-methylbenzyl)-1H-pyrazol-5-yl]-4-cyclohexyl-4H-1,2,4-triazol-3-yl]thio)acetate] | < 9 |
| COc1ccc(NC(=O)c2cc(C(C)(C)C)nn2Cc2ccc(Cl)cc2Cl)cc1 [Example 12, 5-tert-Butyl-2-(2,4-dichloro-benzyl)-2H-pyrazole-3-carboxylic acid (4-methoxy-phenyl)-amide] | < 9 |
| CCn1nc(-c2cccs2)cc1C(=O)Nc1ccc(Cl)cc1 [Example 13, 2-Ethyl-5-thiophen-2-yl-2H-pyrazole-3-carboxylic acid (4-chloro-phenyl)-amide] | 17 |

Further lines, results first:

| IC50 [µM] | Molecule |
| --- | --- |
| 13 | Cn1c(SCC(=O)C(C)(C)C)nnc1-c1cc(C(C)(C)C)nn1Cc1ccc(F)cc1 [1-{5-[5-tert-Butyl-2-(4-fluoro-benzyl)-2H-pyrazol-3-yl]-4-methyl-4H-[1,2,4]triazol-3-ylsulfanyl}-3,3-dimethyl-butan-2-one] |
| 3 | CC(C)(C)c1cc(C(=O)Nc2ccc(Br)c(Cl)c2)n(Cc2ccccc2)n1 [2-Benzyl-5-tert-butyl-2H-pyrazole-3-carboxylic acid (4-bromo-3-chloro-phenyl)-amide] |
| 20 | CCn1nc(C)cc1-c1nnc(SCc2ccccc2)n1-c1ccccc1 [3-(Benzylthio)-5-(1-ethyl-3-methyl-1H-pyrazol-5-yl)-4-phenyl-4H-1,2,4-triazolehemihydrate] |
| 6 | Cc1ccc(Cn2nc(C)cc2C(=O)Nc2cccc(C(F)(F)F)c2)cc1 [5-Methyl-2-(4-methyl-benzyl)-2H-pyrazole-3-carboxylic acid (3-trifluoromethyl-phenyl)-amide] |
| < 9 | Cc1cccc(Cn2nc(C(C)(C)C)cc2-c2nnc(S)n2C2CCCCC2)c1 [5-[3-(tert-Butyl)-1-(3-methylbenzyl)pyrazol-5-yl]-4-cyclohexyl-1,2,4-triazole-3-thiol] |
| 30.9 | O=C(NO)c1ccc(-c2nn(Cc3ccccc3)c3ccccc23)o1 [Example 6, 1-Benzyl-3-(5-hydroxylaminocarbonyl-2-furyl)-1H-indazole] |
| < 9 | CC(C)(C)c1cc(C(=O)Nc2ccccc2)n(Cc2ccccc2)n1 [Example 9, 2-Benzyl-5-tert-butyl-2H-pyrazole-3-carboxylic acid phenylamide] |
| 7 | CC(C)(C)c1cc(C(=O)NCc2ccccc2)n(Cc2ccccc2)n1 [Example 10, 2-Benzyl-5-tert-butyl-2H-pyrazole-3-carboxylic acid benzylamide] |
| 18 | O=C(Nc1ccccc1)c1cc(-c2ccccc2)n(-c2ccc(Cl)cc2)n1 [Example 11, 1-(4-Chloro-phenyl)-5-phenyl-1H-pyrazole-3-carboxylic acid phenylamide] |
